According to patent US20250287942A1, “FORMULATIONS FOR REPELLING BEES AND OTHER INSECTS” (priority 2022, published 2025):

How the values were obtained:
[1] = TGA volatility at 40 degrees Celsius (Example 3); assay type: physicochemical; conditions: isothermal at 40° C. for 900 minutes, slope from 800-900 minutes
Experimental: Volatility may be measured by Thermogravimetric Analysis (TGA) method. Volatility of bee repellent compounds is measured by TGA at 40° C. (i.e., as bee repellent wt % loss per min at 40° C.). In some variations, a “high volatility” bee repellent compound has a volatility greater than 1E-04 (wt % loss/min at 40° C.). In some variations, a “low volatility” bee repellent compound has a bee repellent volatility less than 1E-04 (wt % loss/min at 40° C.).
A TA Instruments TGA5500 was used to determine the volatility of bee repellent chemicals at 40 degrees Celsius. The sample purge was set for 25 mL/min and the balance purge is set for 10 mL/min. A 30 mg sample of the chemical was placed in the sample pan, the temperature was ramped up to 40° C. at a rate of 10° C./min and was held isothermal at 40° C. for 900 minutes. The slope was then determined from 800-900 minutes to determine its volatility. The volatility of bee repellent compounds were determined according to Table 6 below.

[2] = system: honey bee workers (Apis mellifera); experiment: 2-choice plate (petri-dish arena) assay, honey vs honey plus repellent candidate; assay type: in vivo; conditions: 2-choice plate assay; for First choice Preference Index (repellent side): first visit and drink (repellent - solvent)/(repellent + solvent); for Honey consumption Preference Index (repellent side): plates where honeybees drank more honey from (repellent - solvent)/(repellent + solvent)
Experimental: To date, we used capped brood frames from 10 colonies kept in three apiaries on campus at UC Riverside. After moving the brood (pupated honey bee larvae) into an observation frame inside an incubator overnight, we collected freshly emerged honey bee workers into groups of 80 per cage, providing them with a small piece of wax foundation, 50% sugar water and tap water ad libitum. Between day 3 and day 10 post emergence, we provided them with a protein dough. We removed dead workers and exchanged food every second day. After the bees reached foraging age (13-19 days post emergence), we grouped them into cages of 40 workers, each. To ensure that they were hungry enough to participate in our trials, we starved the workers before each experiment, depending on their age. Between 13 and 16 days of age, we wet-starved them for 17 hours by removing the sugar water tube from their cage, replacing it with an empty vial. Bees aged between 17 and 19 days were starved for six hours, only, to ensure their survival. On the day of the experiment, we removed dead bees and food vials from each cage, and placed the cage into a refrigerator, until the trial arena was ready, and the bees were cool enough to not move anymore.
To turn a 15 cm petri-dish into a 2-choice test arena, we taped a paper-grid on the outside of its bottom, establishing one side as honey (H) and the other as honey plus repellent candidate (HR, FIG. 3). Next, we pipetted 20 ul of pure acetone onto a 6 mm punch-out of filter paper, then let it evaporate in the fume hood for at least 30 min. We then taped the punch-out to the H-spot on the petri-dish. Repeating the process with 20 ul of the repellent candidate (5% in acetone), again letting the acetone evaporate for at least 30 Min, we stuck the now solely repellent-candidate-soaked punch-out onto the HR spot of the arena. To entice the bees to participate in our trial, we used a pipette and filled two 70 ul lids of PCR tubes full of pure, slightly warmed honey, until we observed a meniscus. We then taped one honey-filled lid onto the H, the other onto the HR filter paper, being careful not to disturb the meniscus.
We placed six prepared arenas onto a heating pillow turned onto level 1 (FIG. 2B), removed the cooled honey bee workers from the fridge and grouped between four and five bees into each plate, using insect tweezers. We filmed the bees for 60 Minutes, using an ipad (video at wide-angle, 0.5). To avoid glare, we staged the ipad on top of a plexi glass pane held by a cage constructed from pvc tubes, and covered with a double cotton sheet.
After each trial, we counted those plates, in which the honey wells had been touched as participating plates. We repeated the trials often enough to ensure participation in a minimum of five plates per repellent candidate. For each of the participating plates, we then screened each video to find the first bee that chose a honey well to drink from. The choice was recorded as either Honey (H) or Honey and repellent candidate (HR). We then calculated a Preference Index for each repellent candidate as follows: Number of repellent candidate choices minus number of honey choices) divided by sum of all choices).
The negative indexes indicate, that the honey bee workers did avoid the repellent candidates, but to varying degrees. The preference indexes show the first choices of honey bee workers (Apis mellifera) offered honey on filter paper with repellent-candidates versus honey only. Groups of 4-5 honeybee workers were placed in each 2-choice arena. Indexes are calculated per repellent candidate as (total number of repellent choices minus total number of solvent choices) divided by sum of all choices).
Preference Indexes for repellent candidates were determined in a manner similar to that described in Example 1. […]

[3] = TGA volatility method of Example 4; assay type: physicochemical; conditions: 40° C. isothermal for 15 hours, slope between 800-900 minutes
Experimental: Two BR3.3A (liquid) and BR 4.5 (solid) bee repellents were used in this example for comparison. BR 3.3A has a relatively higher volatility compared to BR 4.5. A TGA method was developed to characterize volatility of bee repellents. The volatility was measured by setting up a TGA method. In the TGA pan, 0.30 mg+0.02 mg of the bee repellent of interest is applied in an even layer on the bottom of the TGA pan immediately before starting the measurement. The TGA is programmed to have a balance purge flow of 40 mL/min and a sample purge flow of 60 mL/min. The TGA ramps from 25° C. to 40° C. at a rate of 5° C. per minute. Then the temperature is held isothermally at 40° C. for 15 hours. After the test has been completed, the slope is calculated for the % loss per minute between 800-900 minutes and the results are reported. The smaller the slope, the less the volatility. The volatility of BR3.3A measured by the above method has a slope of −4.61E-03%/min, and the slope for BR4.5 is −1.81E-04%/min.

honey bees = experiment: Field study on flowering buckwheat patches, honey bee counts; assay type: in vivo; conditions: emulsifiable concentrate sprayed at 4 kg/hectare; counts at 15 min, 30 min, 1 hour, 24 hours
Experimental: In this field study, 12 patches of buckwheat were planted, each measuring approximately 2 m×2 m in size in the agricultural operations field. When the flowering was estimated to be >50%, the experiments were performed. Each patch was divided into 2 approximately equal parts based on flowers by observation, one side for treatment spray and the other as control solvent (water) spray (FIG. 9A). The patches for different treatments were in a block design and the treatment side in a patch was randomly assigned as water or treatment (FIG. 9B). The test chemicals in emulsifiable concentrate form were dissolved in water in a tank to spray at the rate equivalent to 4 kg/hectare. After the spraying the numbers of honey bees present on each side of each patch was counted by 3 human observers at the following time points: 15 min, 30 min, 1 hour, 24 hours. The average number of bees at each time point were used to calculate the percentage decrease in numbers of bees on the treatment side relative to the water side and plotted (FIG. 9C).

SMILES | TGA volatility @ 40° C. (weight loss %/min) [1] | % honey left on repellent side [2] | First choice Preference Index (repellent side) [2] | Honey consumption Preference Index (repellent side) [2] | other results
CCCC(=O)CCc1ccccc1 [1-phenyl-3-hexanone] | 1.37E−02 weight loss %/min |  |  |  | 
CCCCCCCCC(C)=O [2-Decanone, reference compound] | 0.1623 weight loss %/min |  |  |  | 
CCNC(=O)c1cccc(Br)c1 [3-bromo-N-ethylbenzamide] | 1.40E−04 weight loss %/min |  |  |  | 
COCCC(=O)Oc1ccccc1 [BR 3.1, Phenyl 3-methoxy-propanoate] |  | 99.17% | −0.8333 | −0.9166 | 
CCOC(=O)CC1CCc2ccccc21 (stereo not shown) [BR 3.3A, ethyl 2-(2,3-dihydro-1H-inden-1-yl)acetate] |  | 95.83% | −1 | −1 | slope, % loss per minute (TGA volatility) [3]: −4.61E-03 %/min
CCCC(=O)CCc1ccccc1 [BR 3.4, 1-Phenyl-3-hexanone] |  | 99.72% | −1 | −1 | 
CCCCCC(=O)c1ccccc1 [BR 3.5, Hexanophenone] |  | 100% | −1 | −1 | 
CCOCCC(=O)N1CCc2ccccc21 [BR 3.9, 1-(2,3-Dihydro-1H-indol-1-yl)-3-ethoxy-1-propanone] |  |  | −0.6 | −0.8 | 
CCOCCCNC(=O)c1ccccc1I [BR 3.30, N-(3-ethoxypropyl)(2-iodophenyl) carboxamide] |  | 80.45% | −0.733 | −0.8 | 
C/C(=C\C(=O)c1ccccc1)c1ccccc1 [BR 3.42, (2E)-1,3-Diphenyl-2-buten-1-on] |  |  | −0.772 | −0.727 | 
CCNC(=O)c1cccc(Br)c1 [BR 3.47, 3-bromo-N-ethylbenzamide] |  | 95.42% | −1 | −0.6666 | 
CCOC(=O)c1ccccc1I [BR 3.81, Ethyl 2-iodobenzoate] |  | 99.17% | −0.9 | −0.9 | numbers of honey bees on treatment side relative to water side (honey bees): showed a decrease in numbers of honey bees
O=C(/C=C/c1cccnc1)c1ccncc1 [BR 4.4, 3-(3-Pyridinyl)-1-(4-pyridinyl)-2-propen-1-one] |  |  | −0.7142 | −0.7143 | 
CC(C)OC(C(=O)c1ccccc1)c1ccccc1 (stereo not shown) [BR 4.5, 2-Isopropox y-1,2-diphenyl-ethanone] |  |  | −0.8947 | −0.8947 | slope, % loss per minute (TGA volatility) [3]: −1.81E-04 %/min
CCN(CC)C(=O)c1cccc(C)c1 [DEET, N,N-diethyl-meta-toluamide, reference compound] | 2.29E−03 weight loss %/min |  |  |  | 
CCOC(=O)CNc1ccccc1C#N [Ethyl 2-(2-Cyanoanilino) acetate] | 4.04E−05 weight loss %/min |  |  |  | 
CCOC(=O)c1ccccc1I [Ethyl 2-iodobenzoate] | 6.66E−03 weight loss %/min |  |  |  | 
CCOC(=O)Cc1cccc(C)c1 [Ethyl m-Tolylacetate] | 2.73E−02 weight loss %/min |  |  |  | 
CCCCCC(=O)c1ccccc1 [Hexanophenone] | 1.11E−02 weight loss %/min |  |  |  | 
CCOCCCNC(=O)c1ccccc1I [N-(3-ethoxypropyl)-2-iodobenzamide] | 2.16E−05 weight loss %/min |  |  |  | 
COCCC(=O)Oc1ccccc1 [Phenyl 3-methoxypropanoate] | 1.66E−02 weight loss %/min |  |  |  | 
CCOC(=O)CC1CCc2ccccc21 (stereo not shown) [ethyl 2-(2,3-dihydro-1H-inden-1-yl) acetate] | 4.61E−03 weight loss %/min |  |  |  | 
